Laboratory results from patent publication US20260042762A1 (Kymera Therapeutics, Inc., priority 2018, published 2026).
Structures can show the parent of a compound that is named as a salt.

Experiments:
MerTK [1] = biological target: T1, MerTK (Mus musculus, UniProt Q60805); assay: MerTK degradation in RAW264 cells (Western blot); assay type: cell-based; conditions: RAW264.7, 0.001-1 μM, 4 hour-incubation at 37° C., read-out: RAW264 Max % MerTK Degradation
T1 construct: endogenous in cells; host or cells: RAW264 cells
T1 sequence (Q60805 19-994): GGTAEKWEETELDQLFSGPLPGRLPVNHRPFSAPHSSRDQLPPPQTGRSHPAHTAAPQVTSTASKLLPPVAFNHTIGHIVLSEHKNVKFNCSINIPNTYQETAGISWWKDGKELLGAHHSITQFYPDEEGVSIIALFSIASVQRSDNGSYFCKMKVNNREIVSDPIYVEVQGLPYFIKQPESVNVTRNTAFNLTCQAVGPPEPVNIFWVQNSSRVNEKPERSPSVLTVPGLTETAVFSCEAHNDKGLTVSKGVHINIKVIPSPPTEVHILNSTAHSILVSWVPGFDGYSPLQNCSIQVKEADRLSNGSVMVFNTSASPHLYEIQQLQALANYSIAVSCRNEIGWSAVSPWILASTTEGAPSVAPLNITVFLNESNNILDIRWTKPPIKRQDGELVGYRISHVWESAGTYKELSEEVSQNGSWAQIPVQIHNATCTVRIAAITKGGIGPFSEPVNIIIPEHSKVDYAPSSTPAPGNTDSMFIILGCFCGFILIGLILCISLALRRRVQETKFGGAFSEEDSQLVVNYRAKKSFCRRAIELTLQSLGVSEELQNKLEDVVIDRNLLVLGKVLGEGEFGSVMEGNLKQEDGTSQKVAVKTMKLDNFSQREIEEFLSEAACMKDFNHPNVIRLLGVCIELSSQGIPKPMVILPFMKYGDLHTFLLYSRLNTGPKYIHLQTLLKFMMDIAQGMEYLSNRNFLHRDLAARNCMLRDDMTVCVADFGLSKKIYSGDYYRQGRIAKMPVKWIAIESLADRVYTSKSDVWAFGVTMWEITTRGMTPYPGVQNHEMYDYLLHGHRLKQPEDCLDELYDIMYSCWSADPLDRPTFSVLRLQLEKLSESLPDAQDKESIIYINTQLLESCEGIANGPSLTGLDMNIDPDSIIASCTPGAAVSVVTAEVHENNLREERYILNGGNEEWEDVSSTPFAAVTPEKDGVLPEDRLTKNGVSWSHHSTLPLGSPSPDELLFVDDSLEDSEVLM
Description: Compounds were reconstituted in DMSO to make 10 mM stock solutions. RAW264 cells were maintained in DMEM medium containing 10% FBS. Cells were seeded into 6-well plates with 2×10^6 cells per well. 2 μL of diluted compounds were added to cells to the final concentration of 0.001-1 μM. After a 4 hour-incubation at 37° C., cells were washed with DPBS (1×) once. Then RIPA lysis buffer with Halt Protease and Phosphatase Inhibitor Cocktail was added directly to the cells and cells were then incubated on ice for 10 min, then lysate was harvested into 1.5 mL Eppendorf tubes and centrifuged at 14,000 rpm for 10 min at 4° C. and the supernatants were collected for Western blots.
The protein concentration of cell lysates was quantified with Pierce™ BCA Protein Assay Kit. […] BCA working reagents were prepared by mixing BCA reagent A with reagent B in 50: 1 ratio. 200 μL of the BCA working reagents were added to 25 μL of BCA standard or cell lysates in microplate, and mixed thoroughly on a plate shaker for 30 seconds. After incubation at 37° C. for 30 min, the absorbance of samples at 562 nm were measured with EnVision Plate Reader.
Protein lysates were prepared in NuPAGE™ LDS sample buffer and NuPAGE™ sample reducing agent, and incubated at 95° C. for 5 min. […] The proteins were transferred to low fluorescence PVDF membranes using the Trans-Blot Turbo Transfer System. Membranes were then blocked in Odyssey blocking buffer at RT for 1 h followed by primary incubation at 4° C. overnight. The primary antibodies were MerTK goat polyclonal antibody and actin mouse monoclonal antibody. Membranes were washed three times with TBST (1×), and then incubated with IR Dye 800 CW Donkey anti-goat and IR Dye 700 CW Goat anti-mouse secondary antibodies in 1:10,000 dilution at RT for 1 h. The Western blot images were obtained using Odyssey Imaging System.

MerTK [2] = biological target: T2, MerTK (Homo sapiens, UniProt Q12866); assay: MerTk degradation in Jurkat cells (Western blot); assay type: cell-based; conditions: Jurkat, 4 h, 0.001-1 μM, 4 hour-incubation at 37° C., read-out: Jurkat Max % MerTK Degradation
T2 construct: endogenous in cells; host or cells: Jurkat cells
T2 sequence (Q12866 21-999): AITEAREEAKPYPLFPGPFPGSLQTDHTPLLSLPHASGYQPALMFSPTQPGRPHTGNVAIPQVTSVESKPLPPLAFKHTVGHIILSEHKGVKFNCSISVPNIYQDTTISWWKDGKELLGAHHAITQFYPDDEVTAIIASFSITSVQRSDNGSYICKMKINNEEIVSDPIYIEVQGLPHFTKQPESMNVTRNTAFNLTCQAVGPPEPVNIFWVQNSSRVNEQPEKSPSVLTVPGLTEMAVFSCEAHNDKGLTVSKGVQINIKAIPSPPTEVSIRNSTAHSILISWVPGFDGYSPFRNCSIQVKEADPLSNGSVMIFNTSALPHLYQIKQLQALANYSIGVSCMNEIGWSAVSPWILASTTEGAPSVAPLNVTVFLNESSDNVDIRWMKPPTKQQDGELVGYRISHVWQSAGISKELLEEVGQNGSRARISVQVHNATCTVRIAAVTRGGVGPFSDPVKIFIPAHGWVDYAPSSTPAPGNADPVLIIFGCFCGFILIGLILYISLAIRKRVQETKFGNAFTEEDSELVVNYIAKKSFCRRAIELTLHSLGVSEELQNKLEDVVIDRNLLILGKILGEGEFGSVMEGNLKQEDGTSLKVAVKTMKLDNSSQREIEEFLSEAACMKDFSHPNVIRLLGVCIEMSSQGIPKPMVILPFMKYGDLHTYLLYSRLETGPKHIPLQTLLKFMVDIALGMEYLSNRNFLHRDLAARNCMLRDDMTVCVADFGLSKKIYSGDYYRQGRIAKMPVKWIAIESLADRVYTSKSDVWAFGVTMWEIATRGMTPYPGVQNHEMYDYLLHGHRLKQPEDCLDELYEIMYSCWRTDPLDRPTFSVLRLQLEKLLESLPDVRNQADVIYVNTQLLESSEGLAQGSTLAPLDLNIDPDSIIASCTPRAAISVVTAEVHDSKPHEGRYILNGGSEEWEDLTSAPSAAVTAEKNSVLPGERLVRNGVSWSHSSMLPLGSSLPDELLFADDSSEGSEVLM
Summary of the method: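 Jurkat cells treated 4 h at 37 °C with compound at 0.001-1 μM final. RIPA lysates quantified by BCA, then MerTK probed by Western blot against actin loading control with IR-dye secondaries and Odyssey imaging.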

Dmax (MerTK [1]) [%] | Dmax (MerTK [2]) [%] | SMILES
> 50 | > 50 | O=C1CCC(N2C(=O)c3cccc(NCCOCCOCCOCCOCCN4CCN(Cc5ccc(-c6cn([C@H]7CC[C@H](O)CC7)c7nc(NCCC8CC8)ncc67)cc5)CC4)c3C2=O)C(=O)N1 (stereo partly drawn) [I-14, 4-(15-[4-[(4-[2-[(2-Cyclopropylethyl)amino]-7-[trans-4-hydroxycyclohexyl]-7H-pyrrolo[2,3-d]pyrimidin-5-yl]phenyl)methyl]piperazin-1-yl]-4,7,10,13-tetraoxa-1-azapentadecan-1-yl)-2-(2,6-dioxopiperidin-3-yl)-2,3-dihydro-1H-isoindole-1,3-dione formate]
20 to 50 | > 50 | COCCNc1ncc2c(-c3ccc(CN4CCN(CCOCCOCCOCCOCCNc5cccc6c5C(=O)N(C5CCC(=O)NC5=O)C6=O)CC4)cc3)cn([C@H]3CC[C@H](O)CC3)c2n1 (stereo partly drawn) [I-15, 2-(2,6-Dioxopiperidin-3-yl)-4-(15-[4-[(4-[2-[(2-methoxyethyl)amino]-7-[trans-4-hydroxycyclohexyl]-7H-pyrrolo[2,3-d]pyrimidin-5-yl]phenyl)methyl]piperazin-1-yl]-4,7,10,13-tetraoxa-1-azapentadecan-1-yl)-2,3-dihydro-1H-isoindole-1,3-dione diformate]
> 50 | > 50 | CCCCNc1ncc2c(-c3ccc(S(=O)(=O)N4CCN(C(=O)NCCCOCCCOCCCNc5cccc6c5C(=O)N(C5CCC(=O)NC5=O)C6=O)CC4)cc3)nn([C@H]3CC[C@H](O)CC3)c2n1 (stereo partly drawn) [I-19, 4-((4-(6-(Butylamino)-1-(trans-4-hydroxycyclohexyl)-1H-pyrazolo[3,4-d]pyrimidin-3-yl)phenyl)sulfonyl)-N-(3-(3-(3-((2-(2,6-dioxopiperidin-3-yl)-1,3-dioxoisoindolin-4-yl)amino)propoxy)propoxy)propyl)piperazine-1-carboxamide]
> 50 | > 50 | CCCCNc1ncc2c(-c3ccc(S(=O)(=O)N4CCN(C(=O)NCCCOCCCNc5cccc6c5C(=O)N(C5CCC(=O)NC5=O)C6=O)CC4)cc3)nn([C@H]3CC[C@H](O)CC3)c2n1 (stereo partly drawn) [I-20, 4-((4-(6-(Butylamino)-1-(trans-4-hydroxycyclohexyl)-1H-pyrazolo[3,4-d]pyrimidin-3-yl)phenyl)sulfonyl)-N-(3-(3-((2-(2,6-dioxopiperidin-3-yl)-1,3-dioxoisoindolin-4-yl)amino)propoxy)propyl)piperazine-1-carboxamide]
20 to 50 | 20 to 50 | Cc1ccc(CNc2ncc(-c3ccc(CN4CCN(CCOCCOCCOCCOCCNc5cccc6c5C(=O)N(C5CCC(=O)NC5=O)C6=O)CC4)cn3)c(N[C@H]3CC[C@H](O)CC3)n2)cc1 (stereo partly drawn) [I-21, 2-(2,6-Dioxopiperidin-3-yl)-4-[15-(4-[[6-(2-[[(4-methylphenyl)methyl]amino]-4-[[trans-4-hydroxycyclohexyl]amino]pyrimidin-5-yl)pyridin-3-yl]methyl]piperazin-1-yl)-4,7,10,13-tetraoxa-1-azapentadecan-1-yl]-2,3-dihydro-1H-isoindole-1,3-dione]
20 to 50 | > 50 | CCCCNc1ncc2c(-c3ccc(S(=O)(=O)N4CCN(C(=O)NCCOCCCOCCNc5cccc6c5C(=O)N(C5CCC(=O)NC5=O)C6=O)CC4)cc3)nn([C@H]3CC[C@H](O)CC3)c2n1 (stereo partly drawn) [I-23, 4-((4-(6-(Butylamino)-1-(trans-4-hydroxycyclohexyl)-1H-pyrazolo[3,4-d]pyrimidin-3-yl)phenyl)sulfonyl)-N-(2-(3-(2-((2-(2,6-dioxopiperidin-3-yl)-1,3-dioxoisoindolin-4-yl)amino)ethoxy)propoxy)ethyl)piperazine-1-carboxamide]
> 50 | > 50 | CCCCNc1ncc(-c2ccc(CN3CCN(CCOCCOCCOCCOCCNc4cccc5c4C(=O)N(C4CCC(=O)NC4=O)C5=O)CC3)cn2)c(N[C@H]2CC[C@H](O)CC2)n1 (stereo partly drawn) [I-25, 4-[15-[4-([6-[2-(Butylamino)-4-[[trans-4-hydroxycyclohexyl]amino]pyrimidin-5-yl]pyridin-3-yl]methyl)piperazin-1-yl]-4,7,10,13-tetraoxa-1-azapentadecan-1-yl]-2-(2,6-dioxopiperidin-3-yl)-2,3-dihydro-1H-isoindole-1,3-dione]
> 50 | > 50 | Cc1ccc(CNc2ncc3c(-c4ccc(CN5CCN(CCOCCOCCOCCOCCNc6cccc7c6C(=O)N(C6CCC(=O)NC6=O)C7=O)CC5)cc4)cn([C@H]4CC[C@H](O)CC4)c3n2)cc1 (stereo partly drawn) [I-26, 2-(2,6-Dioxopiperidin-3-yl)-4-[15-(4-[[4-(2-[[(4-methylphenyl)methyl]amino]-7-[trans-4-hydroxycyclohexyl]-7H-pyrrolo[2,3-d]pyrimidin-5-yl)phenyl]methyl]piperazin-1-yl)-4,7,10,13-tetraoxa-1-azapentadecan-1-yl]-2,3-dihydro-1H-isoindole-1,3-dione formate]
> 50 | > 50 | CCCCNc1ncc2c(-c3ccc(S(=O)(=O)N4CCN(C(=O)CCCCCCCCCCC(=O)N[C@H](C(=O)N5C[C@H](O)C[C@H]5C(=O)NCc5ccc(-c6scnc6C)cc5)C(C)(C)C)CC4)cc3)nn([C@H]3CC[C@H](O)CC3)c2n1 [I-27, (2S,4R)-1-((S)-2-(12-(4-((4-(6-(Butylamino)-1-(trans-4-hydroxycyclohexyl)-1H-pyrazolo[3,4-d]pyrimidin-3-yl)phenyl)sulfonyl)piperazin-1-yl)-12-oxododecanamido)-3,3-dimethylbutanoyl)-4-hydroxy-N-(4-(4-methylthiazol-5-yl)benzyl)pyrrolidine-2-carboxamide]
